Columns and labels:
[1] = system: 26S proteasome semipurified from SEM cells, peptidyl glutamyl peptide hydrolyzing (PGPH) activity; test: Proteasome activity on semipurified cell extract (fluorogenic substrate); assay type: biochemical, human; conditions: 60 min at 37 °C, cell-free
Source text: (§1) The 26S proteasome is a multicatalytic protease responsible for the regulated intracellular protein degradation. Its function is mediated by three main catalytic activities i) chymotrypsin like (CT) ii) Trypsin-like (T) and iii) peptidyl glutamyl peptide hydrolyzing (PGPH). To evaluate the effect of CP on the proteasome activity in leukemia cells, we tested increasing concentrations of the compound on semipurified 26S proteasome extract from RS4;11 and SEM cells, and measured the functioning of each individual proteolytic activity under cell-free condition.
(§2) FIGURE 3 CP treatment affects Ubiquitin Proteasome System (UPS) 26S proteasome (100 μg) semipurified from (A) SEM and (B) RS4;11 cells was incubated for 60 min at 37 °C with CP at different concentrations. Chymotrypsin (CT), trypsin (T) and peptidyl glutamyl peptide hydrolyzing (PGPH) catalytic activity were measured fluorimetrically (excitation 370, nm emission 460) by following the release of free AMC from synthetic substrates N-Suc-Leu-Leu-Val-Tyr-AMC, Boc-Gln-Ala-Arg-AMC and Z-Leu-Leu-Glu-AMC, specific for CT, T and PGPH activity, respectively. (C) Cells were incubated with CP 2.5 μM for the indicated times and then western blot analyses were performed to evaluate Ubiquitin accumulation.
(§3) RS4;11 and SEM cells were homogenized in a lysis buffer (50 mM Tris-HCl, pH 7.5, 250 mM sucrose, 5 mM MgCl2, 1 mM DTT, 0.5 mM EDTA) and ultracentrifuged for 2 h at 300,000 g. Total protein content was estimated with BioRad protein assay (BioRad) and 100 μg of protein aliquots were incubated for 60 min at 37°C with CP at different concentrations. Afterwards, fluorogenic proteasome substrates (N-Suc-Leu-Leu-Val-Tyr-7-amido-4-methylcoumarin (AMC) for chymotripsin (CT), Boc-Gln-Ala-Arg-AMC for tripsin (T) and Z-Leu-Leu-Glu-AMC for peptidyl glutamyl peptide hydrolyzing (PGPH) were added and the substrate hydrolysis was measured after 30 min by monitoring the release of Tyr-7-amido-4-methylcoumarin (AMC) using a Varian Cary Eclipse (Varian) spectrofluorometer (excitation at 370 nm, emission at 460 nm).

[2] = system: 26S proteasome semipurified from RS4;11 cells, Trypsin-like (T) activity; test: as above; assay type: biochemical, human; conditions: RS4;11 extract, 60 min at 37 °C, cell-free
Source text: as §1, §2, §3

[3] = system: caspase-9, caspase-3 and -7; test: Western blot, caspase-9, cleaved caspase-7, caspase-3 and PARP; assay type: cell-based, human; conditions: SEM and RS4;11, CP 2.5 μM
Description: (§4) FIGURE 2 CP induces caspase-dependent apoptosis without mitochondria involvement (A) Assessment of mitochondrial membrane potential (ΔΨmt) after treatment of RS4;11 and SEM cells with CP (2.5 μM) for the indicated times. Cells were stained with the fluorescent probe JC-1. Data are represented as mean ± S.E.M. of three independent experiments. (B) Flow cytometric analysis of RS4;11 and SEM cells treated with CP (2.5 μM) for 24 h showing cytochrome c labeled with a monoclonal antibody conjugated to FITC. Representative image of three experiments with similar results. (C) Cells were incubated with CP 2.5 μM and 5 μM in the presence or absence of the pan-caspase inhibitor z-VAD.fmk (100 μM). Cell viability was determined after 48 h by MTT assay. Data are represented as mean ± S.E.M. of three independent experiments performed in triplicate. *p<0.01 vs CP alone. (D) Western blot analysis of Bcl-2, cleaved caspase-12, caspase-9, cleaved caspase-7, caspase-3 and PARP after treatment of SEM and RS4;11 cells with CP (2.5 μM) for the indicated times. To confirm equal protein loading, each membrane was stripped and reprobed with anti-β-actin antibody. […]
(§5) Cells were treated with CP and, after different times, were collected, centrifuged and washed with ice cold phosphate-buffered saline (PBS). […] The protein concentration in the supernatant was determined using the BCA protein assay (Pierce, Italy). […]

Bcl-2 = test: Western blot, Bcl-2; assay type: cell-based, human; conditions: SEM and RS4;11, CP 2.5 μM
Description: as §4, §5

F[P-](F)(F)(F)(F)F.OCP(CO)CO.OCP(CO)CO.OCP(CO)CO.OCP(CO)CO.[Cu+] [CP, [Cu(thp)4][PF6]]
IC50 [1]: ~16 µM
IC50 [2]: ~11 µM
onset of caspase-9 activation and cleavage of caspase-3 and -7 [3]: ≥ 6 h
time at which decrease of Bcl-2 expression is detectable (Bcl-2): ≥ 3 h

— publication PMC4171606, “A novel copper(I) complex induces ER-stress-mediated apoptosis and sensitizes B-acute lymphoblastic leukemia cells to chemotherapeutic agents” (Oncotarget, 2014)
